Test results: patent publication US9884854B2, “N-[(pyrimidinylamino)propanyl]-and N[(pyrazinylamino)proppanyl]arylcarboxamides” (Boehringer Ingelheim International GmbH, priority 2016, dated 2018)

system: human MDR1 P-gp; assay: Assay D: efflux in MDCK cells transfected with the human MDR1 gene; format: in vitro ADME, canine; settings: dog; MDCK-MDR1 monolayers, pH 7.4, 37° C.; read-out: MDCK efflux ratio (BA/AB)
Description: The MDCK assay provides information on the potential of a compound to pass the blood brain barrier. Permeability measurements across polarized, confluent MDCK-MDR1 cell monolayers grown on permeable filter supports are used as an in vitro absorption model: apparent permeability coefficients (PE) of the compounds across the MDCK-MDR1 cell monolayers are measured (pH 7.4, 37° C.) in apical-to-basal (AB) and basal-to-apical (BA) transport direction. The AB permeability (PEAB) represents drug absorption from the blood into the brain and the BA permeability (PEBA) drug efflux from the brain back into the blood via both, passive permeability as well as active transport mechanisms mediated by efflux and uptake transporters that are expressed on the MDCK-MDR1 cells, predominantly by the overexpressed human MDR1 P-gp. Identical or similar permeabilities in both transport directions indicate passive permeation, vectorial permeability points to additional active transport mechanisms. Higher PEBA than PEAB (PEBA/PEAB>5) indicates the involvement of active efflux mediated by MDR1 P-gp, which might compromises the goal to achieve sufficient brain exposure. Therefore this assay provides valuable support for selection of compounds applicable for further in vivo testing. High permeability not limited by efflux at the blood brain barrier is a favourable characteristic for compounds that are to be used for drugs acting primarily in the CNS
D. Assessment of Efflux in Madin-Darby Canine Kidney (MDCK) Cells Transfected with the Human MDR1 Gene
Apparent permeability coefficients (PE) of the compounds across the MDCK-MDR1 cell monolayers are measured (pH 7.4, 37° C.) in apical-to-basal (AB) and basal-to-apical (BA) transport direction. AB permeability (PEAB) represents drug absorption from the blood into the brain and BA permeability (PEBA) drug efflux from the brain back into the blood via both passive permeability as well as active transport mechanisms mediated by efflux and uptake transporters that are expressed on the MDCK-MDR1 cells, predominantly by the overexpressed human MDR1 P-gp. The compounds are assigned to permeability/absorption classes by comparison of the AB permeabilities with the AB permeabilities of reference compounds with known in vitro permeability and oral absorption in the human. Identical or similar permeabilities in both transport directions indicate passive permeation, vectorial permeability points to additional active transport mechanisms. Higher PEBA than PEAB indicates the involvement of active efflux mediated by MDR1 P-gp. Active transport is concentration-dependently saturable.
MDCK-MDR1 cells (1-2×10e5 cells/1 cm2 area) are seeded on filter inserts (Costar transwell polycarbonate or PET filters, 0.4 μm pore size) and cultured (DMEM) for 7 days. Subsequently, the MDR1 expression is boosted by culturing the cells with 5 mM sodium butyrate in full medium for 2 days. Compounds are dissolved in appropriate solvent (like DMSO, 1-20 mM stock solutions). Stock solutions are diluted with HTP-4 buffer (128.13 mM NaCl, 5.36 mM KCl, 1 mM MgSO4, 1.8 mM CaCl2, 4.17 mM NaHCO3, 1.19 mM Na2HPO4×7H2O, 0.41 mM NaH2PO4×H2O, 15 mM HEPES, 20 mM glucose, 0.25% BSA, pH 7.4) to prepare the transport solutions (0.1-300 μM compound, final DMSO<=0.5%). The transport solution (TL) is applied to the apical or basolateral donor side for measuring A-B or B-A permeability (3 filter replicates), respectively. The receiver side contains the same buffer as the donor side. Samples are collected at the start and end of experiment from the donor and at various time intervals for up to 2 hours also from the receiver side for concentration measurement by HPLC-MS/MS or scintillation counting. Sampled receiver volumes are replaced with fresh receiver solution.

Question: Which efflux ratio does the source give for `CCN(C(=O)c1ccccc1-n1nccn1)[C@@H](C)CNc1ncc(C(F)(F)F)cn1` [Example 1] here?
Answer: Its efflux ratio is under 3.

Question: With `CCN(C(=O)c1nc(C)ccc1-n1nccn1)[C@@H](C)CNc1ncc(C(F)(F)F)cn1` [Example 9] as the compound, how does the efflux ratio read?
Answer: The efflux ratio was under 3.

Question: How did the efflux ratio turn out when `CCN(C(=O)c1cnc(C)nc1-c1ccccc1)[C@@H](C)CNc1ncc(C(F)(F)F)cn1` [Example 17] was run?
Answer: The efflux ratio was under 3.

Question: With `CCN(C(=O)c1cccc(F)c1-n1nccn1)[C@@H](C)CNc1ncc(C(F)(F)F)cn1` [Example 18] as the compound, how does the efflux ratio read?
Answer: Its efflux ratio is under 3.
